Source: the supplement of paper PMC11424490

Experiments:
Experiment in all cases: combination cScore with adagrasib (Bliss gap around IC50) (%PoC); higher = stronger additive effect
NCI-H2122 = test system: NCI-H2122
How it was run: (§1)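 Scores represent the average Bliss-independence gap, expected minus measured viability, in a field surrounding both monotherapy IC50s, with the top concentrations used when no IC50 was reached. Cells (NCI-H2122, NCI-H358, SW837) were seeded at 500 or 800 per well in 384-well plates, dosed in matrices at 24 h and grown for 72 h, with SW837 grown for 144 h. Viability was measured by CellTiter-Glo, normalised to vehicle wells and fitted with four-parameter curves.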

NCI-H358 = test system: NCI-H358
How it was run: as §1

SW837 = test system: SW837
How it was run: as §1

Structure (SMILES)	combination cScore with adagrasib (NCI-H2122)	combination cScore with adagrasib (NCI-H358)	combination cScore with adagrasib (SW837)
CC(C)N(CCCNC(=O)Nc1ccc(C(C)(C)C)cc1)C[C@H]1O[C@@H](n2ccc3c(N)ncnc32)[C@H](O)[C@@H]1O + C=C(F)C(=O)N1CCN(c2nc(OC[C@@H]3CCCN3C)nc3c2CCN(c2cccc4cccc(Cl)c24)C3)C[C@@H]1CC#N [adagrasib]	19.1	9.87	2.74
Cc1nc(NC(=O)N2CCC[C@H]2C(N)=O)sc1-c1ccnc(C(C)(C)C(F)(F)F)c1 [BYL-719] + C=C(F)C(=O)N1CCN(c2nc(OC[C@@H]3CCCN3C)nc3c2CCN(c2cccc4cccc(Cl)c24)C3)C[C@@H]1CC#N [adagrasib]	14.3	3.99	17
COc1ncc(-c2ccc3nccc(-c4ccnnc4)c3c2)cc1NS(=O)(=O)c1ccc(F)cc1F + C=C(F)C(=O)N1CCN(c2nc(OC[C@@H]3CCCN3C)nc3c2CCN(c2cccc4cccc(Cl)c24)C3)C[C@@H]1CC#N [adagrasib]	23.1	5.98	4.03
CCCc1cc(C)[nH]c(=O)c1CNC(=O)c1cc(-c2ccnc(N3CCN(C)CC3)c2)cc2c1cnn2C(C)C [GSK343] + C=C(F)C(=O)N1CCN(c2nc(OC[C@@H]3CCCN3C)nc3c2CCN(c2cccc4cccc(Cl)c24)C3)C[C@@H]1CC#N [adagrasib]	15.8	4.64	-0.82
Cc1c(CN2CCC(Nc3ncnc4sc(CC(F)(F)F)cc34)CC2)ccc2[nH]c(C#N)cc12 [MI-463] + C=C(F)C(=O)N1CCN(c2nc(OC[C@@H]3CCCN3C)nc3c2CCN(c2cccc4cccc(Cl)c24)C3)C[C@@H]1CC#N [adagrasib]	19.7	5.31	0.27
O=c1cc(-c2cccc3c2Sc2ccccc2S3)oc(N2CCOCC2)c1 + C=C(F)C(=O)N1CCN(c2nc(OC[C@@H]3CCCN3C)nc3c2CCN(c2cccc4cccc(Cl)c24)C3)C[C@@H]1CC#N [adagrasib]	12.4	7.9	4.85
O=C1c2c(O)ccc(O)c2C(=O)c2c(NCCNCCO)ccc(NCCNCCO)c21 [Mitoxantrone] + C=C(F)C(=O)N1CCN(c2nc(OC[C@@H]3CCCN3C)nc3c2CCN(c2cccc4cccc(Cl)c24)C3)C[C@@H]1CC#N [adagrasib]	12.9	0.02	5.32
CCN(CCCOc1ccc2c(Nc3cc(CC(=O)Nc4cccc(F)c4)[nH]n3)ncnc2c1)CCOP(=O)(O)O [AZD-1152] + C=C(F)C(=O)N1CCN(c2nc(OC[C@@H]3CCCN3C)nc3c2CCN(c2cccc4cccc(Cl)c24)C3)C[C@@H]1CC#N [adagrasib]	12.7	2.1	4.03
Nc1cc(C(F)(F)F)c(-c2cc(N3CCOCC3)nc(N3CCOCC3)n2)cn1 [BKM120] + C=C(F)C(=O)N1CCN(c2nc(OC[C@@H]3CCCN3C)nc3c2CCN(c2cccc4cccc(Cl)c24)C3)C[C@@H]1CC#N [adagrasib]	12.9	2.43	9.24
COc1cc(CCc2cc(NC(=O)c3ccc(N4CC(C)NC(C)C4)cc3)n[nH]2)cc(OC)c1 (centres undefined) [AZD4547] + C=C(F)C(=O)N1CCN(c2nc(OC[C@@H]3CCCN3C)nc3c2CCN(c2cccc4cccc(Cl)c24)C3)C[C@@H]1CC#N [adagrasib]	11.3	-1.38	5.13
Cc1c(-c2c(-c3ccc(F)o3)sc3ncnc(O[C@H](Cc4ccccc4OCc4ccnn4CC(F)(F)F)C(=O)O)c23)ccc(OCCN2CCN(C)CC2)c1Cl + C=C(F)C(=O)N1CCN(c2nc(OC[C@@H]3CCCN3C)nc3c2CCN(c2cccc4cccc(Cl)c24)C3)C[C@@H]1CC#N [adagrasib]	8.13	5.46	4.73
CC1(C)CCC(c2ccc(Cl)cc2)=C(CN2CCN(c3ccc(C(=O)NS(=O)(=O)c4ccc(N[C@H](CCN5CCOCC5)CSc5ccccc5)c(S(=O)(=O)C(F)(F)F)c4)cc3)CC2)C1 [ABT-263] + C=C(F)C(=O)N1CCN(c2nc(OC[C@@H]3CCCN3C)nc3c2CCN(c2cccc4cccc(Cl)c24)C3)C[C@@H]1CC#N [adagrasib]	12.1	6.81	30.9
CCN1CCN(Cc2ccc(Nc3ncc(F)c(-c4cc(F)c5nc(C)n(C(C)C)c5c4)n3)nc2)CC1 [Abemaciclib] + C=C(F)C(=O)N1CCN(c2nc(OC[C@@H]3CCCN3C)nc3c2CCN(c2cccc4cccc(Cl)c24)C3)C[C@@H]1CC#N [adagrasib]	5.55	4.46	12.5
COc1cccc2c1C(=O)c1c(O)c3c(c(O)c1C2=O)C[C@@](O)(C(C)=O)C[C@@H]3O[C@H]1C[C@H](N)[C@H](O)[C@H](C)O1 [Daunorubicin] + C=C(F)C(=O)N1CCN(c2nc(OC[C@@H]3CCCN3C)nc3c2CCN(c2cccc4cccc(Cl)c24)C3)C[C@@H]1CC#N [adagrasib]	4.15	-0.64	4.77
CC/C(=C(\c1ccccc1)c1ccc(OCCN(C)C)cc1)c1ccccc1 [Tamoxifen] + C=C(F)C(=O)N1CCN(c2nc(OC[C@@H]3CCCN3C)nc3c2CCN(c2cccc4cccc(Cl)c24)C3)C[C@@H]1CC#N [adagrasib]	10.3	6.27	5.45
Oc1nc(-c2ccc(C(F)(F)F)cc2)nc2c1CSCC2 [XAV939] + C=C(F)C(=O)N1CCN(c2nc(OC[C@@H]3CCCN3C)nc3c2CCN(c2cccc4cccc(Cl)c24)C3)C[C@@H]1CC#N [adagrasib]	23.8	4.11	5.74
O=C(/C=C/c1cccc(S(=O)(=O)Nc2ccccc2)c1)NO [Belinostat] + C=C(F)C(=O)N1CCN(c2nc(OC[C@@H]3CCCN3C)nc3c2CCN(c2cccc4cccc(Cl)c24)C3)C[C@@H]1CC#N [adagrasib]	7.12	-4.65	5.49
CN(C)C/C=C/C(=O)Nc1cc2c(Nc3ccc(F)c(Cl)c3)ncnc2cc1O[C@H]1CCOC1 [Afatinib] + C=C(F)C(=O)N1CCN(c2nc(OC[C@@H]3CCCN3C)nc3c2CCN(c2cccc4cccc(Cl)c24)C3)C[C@@H]1CC#N [adagrasib]	11.1	11.5	21.2
CCc1c2c(nc3ccc(O)cc13)-c1cc3c(c(=O)n1C2)COC(=O)[C@]3(O)CC [SN-38] + C=C(F)C(=O)N1CCN(c2nc(OC[C@@H]3CCCN3C)nc3c2CCN(c2cccc4cccc(Cl)c24)C3)C[C@@H]1CC#N [adagrasib]	6.93	-1.51	-1.14
CCc1nc(N)nc(N)c1-c1ccc(Cl)cc1 [Pyrimethamine] + C=C(F)C(=O)N1CCN(c2nc(OC[C@@H]3CCCN3C)nc3c2CCN(c2cccc4cccc(Cl)c24)C3)C[C@@H]1CC#N [adagrasib]	15.2	-2.05	-3.37
Cc1c(N)nc([C@H](CC(N)=O)NC[C@H](N)C(N)=O)nc1C(=O)N[C@H](C(=O)N[C@H](C)[C@@H](O)[C@H](C)C(=O)N[C@H](C(=O)NCCc1nc(-c2nc(C(=O)NCCC[S+](C)C)cs2)cs1)[C@@H](C)O)[C@@H](OC1OC(CO)C(O)C(O)C1OC1OC(CO)C(O)C(OC(N)=O)C1O)c1cnc[nH]1 (some centres undefined) [Bleomycin] + C=C(F)C(=O)N1CCN(c2nc(OC[C@@H]3CCCN3C)nc3c2CCN(c2cccc4cccc(Cl)c24)C3)C[C@@H]1CC#N [adagrasib]	17.2	-5.7	7.34
Cc1ccc(C(=O)Nc2ccc(CN3CCN(C)CC3)c(C(F)(F)F)c2)cc1C#Cc1cnc2cccnn12 [Ponatinib] + C=C(F)C(=O)N1CCN(c2nc(OC[C@@H]3CCCN3C)nc3c2CCN(c2cccc4cccc(Cl)c24)C3)C[C@@H]1CC#N [adagrasib]	14.4	3.62	-0.53
CS(=O)(=O)CCNCc1ccc(-c2ccc3ncnc(Nc4ccc(OCc5cccc(F)c5)c(Cl)c4)c3c2)o1 [Lapatinib] + C=C(F)C(=O)N1CCN(c2nc(OC[C@@H]3CCCN3C)nc3c2CCN(c2cccc4cccc(Cl)c24)C3)C[C@@H]1CC#N [adagrasib]	18.6	11.3	11.2
